The values below are quoted from earlier work in US10842782B2, “Storage stable composition comprising rifaximin alpha” (Sandoz AG, priority 2016, dated 2020).

A word on the AUC: it is the area under the concentration-time curve, a measure of exposure. For orientation: Cmax means the peak of the concentration-time curve.

The conditions of this data set: single 400 mg dose.

For the molecule `CO[C@H]1/C=C/O[C@@]2(C)Oc3c(C)c(O)c4c(O)c(c5c(nc6cc(C)ccn65)c4c3C2=O)NC(=O)/C(C)=C\C=C\[C@H](C)[C@H](O)[C@@H](C)[C@@H](O)[C@@H](C)[C@H](OC(C)=O)[C@@H]1C` [Alpha, (2S,16Z,18E,20S,21S,22R,23R,24R,25S,26S,27S,28E)-5,6,21,23,25-pentahydroxy-27-methoxy-2,4,11,16,20,22,24,26-octamethyl-2,7-(epoxypentadeca[1,11,13]trienimino) benzofuro[4,5-e]pyrido[1,2-a]-benzimidazole-1,15(2H)-dione,25-acetate], the AUC is 17 ng·h/mL and the Cmax was 2.6 ng/mL.
Take `CO[C@H]1/C=C/O[C@@]2(C)Oc3c(C)c(O)c4c(O)c(c5c(nc6cc(C)ccn65)c4c3C2=O)NC(=O)/C(C)=C\C=C\[C@H](C)[C@H](O)[C@@H](C)[C@@H](O)[C@@H](C)[C@H](OC(C)=O)[C@@H]1C` [Delta, (2S,16Z,18E,20S,21S,22R,23R,24R,25S,26S,27S,28E)-5,6,21,23,25-pentahydroxy-27-methoxy-2,4,11,16,20,22,24,26-octamethyl-2,7-(epoxypentadeca[1,11,13]trienimino) benzofuro[4,5-e]pyrido[1,2-a]-benzimidazole-1,15(2H)-dione,25-acetate]: the AUC is 830 ng·h/mL and the Cmax was 308.3 ng/mL.
